# In US20260248787A9, “MEDICAMENT FOR TREATING CANCER COMPRISING OPTICALLY ACTIVE AZABICYCLO RING DERIVATIVE” (Sumitomo Pharma Co., Ltd., priority 2023, published 2026):
# Marks after values point to notes of the source that are not given here.
# Assay: Phase 1/2 first-in-human clinical study, safety evaluation (DLT, TEAE, SAE)
structure (smiles),measurement,setting,value
"C=C1C[C@@H]2CC[C@H]1[C@@H](C(=O)N1CCC3(CC1)CN(c1ncncc1Oc1ccc(F)cc1C(=O)N(C(C)C)C(C)C)C3)N2 [the present compound, 5-fluoro-2-[(4-{7-[(1S,3S,4R)-5-methylidene-2-azabicyclo[2.2.2]octane-3-carbonyl]-2,7-diazaspiro[3.5]nonan-2-yl}pyrimidin-5-yl)oxy]-N,N-di(propan-2-yl)benzamide]",Patients with any DLTs,40 mg BID Arm B (N=4; one patient not DLT evaluable),0* n (%) and (0.0) n (%)
same,cases of differentiation syndrome in patients with MLLr or NPM1m,24 patients enrolled,no cases
same,grade of the majority of TEAEs related to the present compound,24 patients enrolled,Grade 1 or 2
same,patients who experienced at least one TEAE,24 patients enrolled,24 patients
same,related TEAE leading to dose withdrawn or dose reduction,24 patients enrolled,No related TEAE leading to dose withdrawn or dose reduction
same,patients who developed DLT,"24 patients enrolled (40-120 mg BID Arm A, 40-60 mg BID Arm B)",none
same,"patients with fatal SAEs, total (all unrelated)","24 patients, Arm A + Arm B",8 patients
same,"patients with serious adverse events (SAEs), total","24 patients, Arm A + Arm B",15 patients
same,safety in humans,40 to 300 mg BID (Examples 1 and 5),confirmed to be safe
same,Treatment-related QT interval prolongation events,"43 patients, 40-200 mg BID",not reported
same,cases of differentiation syndrome in patients with MLLr or NPM1m,"43 patients, 40-200 mg BID",no cases
same,drug-related AE resulting in permanent treatment discontinuation,"43 patients, 40-200 mg BID",No drug-related AE
same,grade of the majority of TEAEs,"43 patients, 40-200 mg BID",Grade 1 or Grade 2
same,treatment-related deaths,"43 patients, 40-200 mg BID",no treatment-related deaths
same,DLTs,"43 patients, any dose level of 40-200 mg",No DLTs
same,cases of suspected differentiation syndrome related to the present compound,"43 patients, patient with TP-53 mutation",One
same,Differentiation syndrome (DS),"57 patients, 40-300 mg",3 patients
same,drug-related AE resulting in permanent treatment discontinuation,"57 patients, 40-300 mg",No drug-related AE
same,treatment-related deaths,"57 patients, 40-300 mg",no treatment-related deaths
same,DLTs,"57 patients, any dose level of 40-300 mg",no DLTs
same,Patients with Any TEAE,"Arm A N=14, Any Grade",14 (100.0) n (%)
same,TEAE: Alanine aminotransferase increased,"Arm A N=14, Any Grade",1 (7.1) n (%)
same,TEAE: Anaemia,"Arm A N=14, Any Grade",5 (35.7) n (%)
same,TEAE: Aspartate aminotransferase increased,"Arm A N=14, Any Grade",2 (14.3) n (%)
same,TEAE: Blood and lymphatic system disorders,"Arm A N=14, Any Grade",10 (71.4) n (%)
same,TEAE: Constipation,"Arm A N=14, Any Grade",3 (21.4) n (%)
same,TEAE: Decreased appetite,"Arm A N=14, Any Grade",3 (21.4) n (%)
same,TEAE: Disease progression,"Arm A N=14, Any Grade",1 (7.1) n (%)
same,TEAE: Dyspnoea,"Arm A N=14, Any Grade",3 (21.4) n (%)
same,TEAE: Epistaxis,"Arm A N=14, Any Grade",1 (7.1) n (%)
same,TEAE: Fatigue,"Arm A N=14, Any Grade",3 (21.4) n (%)
same,TEAE: Gastrointestinal disorders,"Arm A N=14, Any Grade",9 (64.3) n (%)
same,TEAE: General disorders and administration site disorders,"Arm A N=14, Any Grade",8 (57.1) n (%)
same,TEAE: Headache,"Arm A N=14, Any Grade",5 (35.7) n (%)
same,TEAE: Hemorrhoids,"Arm A N=14, Any Grade",0 n (%)
same,TEAE: Hypertriglyceridaemia,"Arm A N=14, Any Grade",1 (7.1) n (%)
same,TEAE: Hypoalbuminaemia,"Arm A N=14, Any Grade",3 (21.4) n (%)
same,TEAE: Hypocalcaemia,"Arm A N=14, Any Grade",3 (21.4) n (%)
same,TEAE: Hypokalaemia,"Arm A N=14, Any Grade",2 (14.3) n (%)
same,TEAE: Hypomagnaesemia,"Arm A N=14, Any Grade",3 (21.4) n (%)
same,TEAE: Hyponatraemia,"Arm A N=14, Any Grade",4 (28.6) n (%)
same,TEAE: Infections and Infestations,"Arm A N=14, Any Grade",8 (57.1) n (%)
same,TEAE: Investigations,"Arm A N=14, Any Grade",10 (71.4) n (%)
same,TEAE: Metabolism and nutrition disorders,"Arm A N=14, Any Grade",11 (78.6) n (%)
same,TEAE: Musculoskeletal and connective tissue disorders,"Arm A N=14, Any Grade",7 (50.0) n (%)
same,TEAE: Nausea,"Arm A N=14, Any Grade",5 (35.7) n (%)
same,TEAE: Nervous System Disorders,"Arm A N=14, Any Grade",7 (50.0) n (%)
same,TEAE: Oedema peripheral,"Arm A N=14, Any Grade",2 (14.3) n (%)
same,TEAE: Pain in extremity,"Arm A N=14, Any Grade",3 (21.4) n (%)
same,TEAE: Platelet count decreased,"Arm A N=14, Any Grade",3 (21.4) n (%)
same,TEAE: Pneumonia,"Arm A N=14, Any Grade",2 (14.3) n (%)
same,TEAE: Pruritus,"Arm A N=14, Any Grade",3 (21.4) n (%)
same,TEAE: Pyrexia,"Arm A N=14, Any Grade",3 (21.4) n (%)
same,"TEAE: Respiratory, thoracic and mediastinal disorders","Arm A N=14, Any Grade",6 (42.9) n (%)
same,TEAE: Sepsis,"Arm A N=14, Any Grade",2 (14.3) n (%)
same,TEAE: Skin and subcutaneous tissue disorders,"Arm A N=14, Any Grade",5 (35.7) n (%)
same,TEAE: Stomatitis,"Arm A N=14, Any Grade",1 (7.1) n (%)
same,TEAE: Vomiting,"Arm A N=14, Any Grade",3 (21.4) n (%)
same,related TEAE: Aspartate aminotransferase increased,"Arm A N=14, Any Grade",0 n (%)
same,related TEAE: Blood and lymphatic system disorders,"Arm A N=14, Any Grade",0 n (%)
same,related TEAE: Decreased appetite,"Arm A N=14, Any Grade",2 (14.3) n (%)
same,related TEAE: Differentiation syndrome,"Arm A N=14, Any Grade",1 (7.1) n (%)
same,related TEAE: Gastrointestinal disorders,"Arm A N=14, Any Grade",2 (14.3) n (%)
same,related TEAE: General disorders and administration site conditions,"Arm A N=14, Any Grade",1 (7.1) n (%)
same,related TEAE: Headache,"Arm A N=14, Any Grade",1 (7.1) n (%)
same,related TEAE: Hypertriglyceridaemia,"Arm A N=14, Any Grade",0 n (%)
same,related TEAE: Hyperuricaemia,"Arm A N=14, Any Grade",1 (7.1) n (%)
same,related TEAE: Increased appetite,"Arm A N=14, Any Grade",1 (7.1) n (%)
same,related TEAE: Investigations,"Arm A N=14, Any Grade",0 n (%)
same,related TEAE: Leukocytosis,"Arm A N=14, Any Grade",0 n (%)
same,related TEAE: Metabolism and nutrition disorders,"Arm A N=14, Any Grade",4 (28.6) n (%)
same,related TEAE: Nausea,"Arm A N=14, Any Grade",2 (14.3) n (%)
same,"related TEAE: Neoplasms benign, malignant and unspecified (incl cysts and polyps)","Arm A N=14, Any Grade",1 (7.1) n (%)
same,related TEAE: Nervous system disorders,"Arm A N=14, Any Grade",1 (7.1) n (%)
same,related TEAE: Thirst,"Arm A N=14, Any Grade",1 (7.1) n (%)
same,related TEAE: Vomiting,"Arm A N=14, Any Grade",2 (14.3) n (%)
same,Patients with Any TEAE,"Arm A N=14, ≥Grade 3",14 (100.0) n (%)
same,TEAE: Alanine aminotransferase increased,"Arm A N=14, ≥Grade 3",0 n (%)
same,TEAE: Anaemia,"Arm A N=14, ≥Grade 3",4 (28.6) n (%)
same,TEAE: Aspartate aminotransferase increased,"Arm A N=14, ≥Grade 3",1 (7.1) n (%)
same,TEAE: Blood and lymphatic system disorders,"Arm A N=14, ≥Grade 3",8 (57.1) n (%)
same,TEAE: Constipation,"Arm A N=14, ≥Grade 3",0 n (%)
same,TEAE: Decreased appetite,"Arm A N=14, ≥Grade 3",0 n (%)
same,TEAE: Disease progression,"Arm A N=14, ≥Grade 3",1 (7.1) n (%)
same,TEAE: Dyspnoea,"Arm A N=14, ≥Grade 3",1 (7.1) n (%)
same,TEAE: Epistaxis,"Arm A N=14, ≥Grade 3",0 n (%)
same,TEAE: Fatigue,"Arm A N=14, ≥Grade 3",0 n (%)
same,TEAE: Gastrointestinal disorders,"Arm A N=14, ≥Grade 3",1 (7.1) n (%)
same,TEAE: General disorders and administration site disorders,"Arm A N=14, ≥Grade 3",2 (14.3) n (%)
same,TEAE: Headache,"Arm A N=14, ≥Grade 3",0 n (%)
same,TEAE: Hemorrhoids,"Arm A N=14, ≥Grade 3",0 n (%)
same,TEAE: Hypertriglyceridaemia,"Arm A N=14, ≥Grade 3",0 n (%)
same,TEAE: Hypoalbuminaemia,"Arm A N=14, ≥Grade 3",0 n (%)
same,TEAE: Hypocalcaemia,"Arm A N=14, ≥Grade 3",0 n (%)
same,TEAE: Hypokalaemia,"Arm A N=14, ≥Grade 3",0 n (%)
same,TEAE: Hypomagnaesemia,"Arm A N=14, ≥Grade 3",0 n (%)
same,TEAE: Hyponatraemia,"Arm A N=14, ≥Grade 3",0 n (%)
